Source: patent US20040101578A1, “Compositon containg ginkgo biloba that inhibit angiogenesis and matrix metalloprotinase” (priority 2003, published 2004)

Tested on: human umbilical vein endothelial cells (HUVEC)
Assay: Tube formation of HUVEC grown with Matrigel
Type: cell-based
Conditions: for Area of the tube: 50 μM compound in DMSO, DMSO control 88; for Area of the tube %: DMSO control = 100; for inhibition at 50 µM: Homo sapiens, HUVEC, read-out: percent inhibition of the tube formation
Procedure: In order to do the tube formation assay, blood vessel endothelial cells, that Is, human umbilical vein endothellal cells (HUVECs), were isolated. HUVECs were isolated from freshly obtained cords after cesarean section, and they were grown and identified by immunocytochemial staining with anti-Factor Vil antibody. HUVECs grown with Matrigel (BD Bioscience, Bedford, Mass., USA), were treated with 0.4 μg/μl of the above Ginkgo biloba leaf extract (Hwa II Pharmaceutical Co., LTD, Korea) of the EXAMPLE 1, and further incubated at 37° C. for […]. As a control, the procedure was repeated without Ginkgo biloba leaf extract.
The area of the tube was determined by the image analysis program Image-Pro Plus (Media Cybernetics, USA), and as summarized in Table I, tube formation after treatment of Ginkgo biloba leaf extract was inhibited by about 60% as compared with the untreated control.
Representative compounds from Ginkgo biloba, quercetin (Sigma Cat No. Q0125) and kaempferol (Indofine Chemical Cat No. K-102) as flavonoids, amentoflavon (Indofine Chemical Cat No. 021101S) as a biflavonoid and ginkolide A (Sigma Cat No. G4028) as a terpene-lactone, were subjected to the tube formation assay as described in EXAMPLE 1.
Since the above chemicals are not soluble in water, they were dissolved on dimethyl sulfoxide (DMSO), and in order to exclude the effect of solvent for these compounds, HUVECs treated with the same amount of DMSO were used as a control. FIG. 6 is a picture of the 1% DMSO-treated HUVEC control, and FIGS. 7-10 are pictures showing the effect on tube formation of individual compounds (quercetin, kaempferol, amentoflavon, and ginlkolide A, respectively). At 50 μM concentration, the order of inhibitory effect on HUVEC tube formation was quercetin>kaempferol>amentoflavon>ginkgolide A. Ginkgolide A was not effective even at 1 mM concentration.
Therefore, not biflavonoids but flavonoids such as quercetin and kaempferol, are the major component for angiogenesis inhibition in Ginkgo biloba leaf extract.

[1] = 50 μM compound, versus DMSO control

SMILES: O=c1c(O)c(-c2ccc(O)cc2)oc2cc(O)cc(O)c12 [Kaempferol, kaempferol]
- Area of the tube: 24
- Area of the tube % (50 μM compound): 27%
- inhibition at 50 µM [1]: 73%

SMILES: O=c1cc(-c2ccc(O)c(-c3c(O)cc(O)c4c(=O)cc(-c5ccc(O)cc5)oc34)c2)oc2cc(O)cc(O)c12 [Amentoflavon, amentoflavon]
- Area of the tube: 48
- percent inhibition of the tube formation [1]: 45
- Area of the tube % (50 μM compound): 55%

SMILES: O=c1c(O)c(-c2ccc(O)c(O)c2)oc2cc(O)cc(O)c12 [Quercetin, quercetin]
- Area of the tube: 6.6
- Area of the tube % (50 μM compound): 7.5%
- inhibition at 50 µM [1]: 93%

SMILES: C[C@@H]1C(=O)O[C@H]2C[C@@]34[C@H]5C[C@@H](C(C)(C)C)[C@]36[C@@H](OC(=O)[C@@H]6O)O[C@@]4(C(=O)O5)[C@]21O [Ginkgolide A, ginkolide A]
- effect on HUVEC tube formation (1 mM concentration): not effective
